Assay results taken from patent US6291657A (priority 1993, dated 2001).
Entries after “also recorded” stand apart in the source; their conditions may differ. Like-named read-outs stand apart in the source and are kept apart here.

How the values were obtained:
[1] = system: HL-60 cells; experiment: Cytotoxicity in the dose range tested; type: cell-based, human
[2] = system: Glc-Cer accumulation in WEHI-3B murine macrophage cells; experiment: In vitro Gaucher's disease model: CBE induced glycolipid storage in WEHI-3B cells, 1D-TLC; type: cell-based; settings: for prevention of glycolipid storage in in vitro Gaucher's disease model (in words): CBE
Protocol: In this model, the murine macrophage cell line WEHI-3B was cultured in the presence of an irreversible glucocerebrosidase inhibitor, conduritol β epoxide (CBE), to mimic the inherited disorder found in Gaucher's disease. WEHI-3B cells are well-known, widely distributed and readily available murine macrophage cells. They are described in Cancer Res. 37, 546-550 (1977), and are readily available from the American Type Culture Collection, Rockville, Md, under accession number ATCC TIB 68. The compounds of the invention prevent lysosomal glycolipid storage which is useful for the management of Gaucher's disease and other glycolipid storage disorders as illustrated hereinafter in Table 3. Gaucher's disease is an autosomal recessive disorder characterized by an impaired ability to degrade glucocerebroside (glucosyl ceramide, Glc-Cer) due to mutations in the gene encoding β-glucocerebrosidase (β-D-glucosyl-N-acylsphingosine glucohydrolase, EC 3.2.1.45). This defect results in the lysosomal accumulation of Glc-Cer in cells of the macrophage-monocyte system [Barranger and Ginns, in The Metabolic Basis of Inherited Diseases, ed. Scriver et al., pp. 1677-1698, McGraw-Hill, New York, (1989); Beutler, Science 256, 794-799 (1992)]. By slowing the rate of glycolipid synthesis, the impaired catabolism of Glc-Cer can be offset, thereby leading to the maintenance of a balanced level of Glc-Cer.
FIGS. 5 and 6 show the analysis of NB-DNJ and NB-DGJ in an in vitro Gaucher's disease model.
The in vitro Gaucher's disease model was prepared as follows: WEHI-3B cells (American Type Culture Collection, Rockville, Md., U.S.A.) were maintained in logarithmic phase growth for 14 days in RPMI-1640 medium, 10% FCS, in the presence or absence of 50 μM conduritol β epoxide (CBE, Toronto Research Chemicals, Downsview, Canada) with or without NB-DNJ or NB-DGJ. Cells were passaged every 3 days and compound concentrations maintained throughout. Equal cell numbers (5×10^6) were harvested, extracted in 1 ml chloroform: methanol (2:1 v/v) overnight at 4° C., the extracts centrifuged, the chloroform:methanol extract retained and the pellet re-extracted as above for 2 hr. at room temperature. Pooled extracts were dried under nitrogen, re-dissolved in 10 μl chloroform:methanol (2:1 v/v) and separated by 1D-TLC in chloroform:methanol:water […]. Plates were air dried and visualized using α-naphthol (1% w/v in methanol) followed by 50% (v/v) sulphuric acid.

[3] = target: UDP-glucose:N-acylsphingosine glucosyltransferase; experiment: Inhibition of UDP-glucose:N-acylsphingosine glucosyltransferase; type: biochemical, rat brain, mouse macrophage (WEHI-3B); settings: rat brain or mouse macrophage homogenates; read-out: IC50
[4] = system: glycolipid and phospholipid species in HL-60 cells; experiment: 2D-TLC analysis of total HL-60 lipids labelled with [14C]-palmitic acid; type: cell-based, human; settings: 2D-TLC (FIG. 2)
Protocol: 2D-TLC separation was made of total HL-60 lipids labelled with [^14 C]-palmitic acid. Cells were treated with either 0.5 mM NB-DNJ or NB-DGJ or untreated (UT). Lipids were assigned as follows (untreated cells, lefthand panel, FIG. 2A): 1, gangliosides; 2, lysophospatidylcholine; 3, ceramide phosphorylcholine; 4, ceramide phosphorylethanolamine; 5, phospatidylcholine; 6, phosphatidylinositol; 7, phosphatidylethanolamine; 8, phosphatidylglycerol; 9, diglycosylceramide; 10, monoglycosylceramide; 11, cholesterol/fatty acids/neutral lipids; N and N* are unknowns; and 0 is the sample origin. Following NB-DNJ and NB-DGJ treatment (middle and righthand panels, FIGS. 2B and 2C, respectively) species 1 (gangliosides);9 (diglycosylceramide); 10 (monoglycosylceramide) and N* (unknown) were absent. The radiolabelled lipids were visualized by autoradiography.
HL-60 cells were cultured by conventional procedure as previously described by Platt et al., Eur. J. Biochem. 208, 187-193 (1992). HL-60 cells at 5×10^4 cells/ml were cultured in the presence or absence of imino sugars for 24 hr. For labelling, the two dimensional thin layer chromatography (2D-TLC) conventional method of Butters and Hughes was followed [In Vitro 17, 831-838 (1981)]. Briefly, [^14 C]-palmitic acid (56.8 mCi/mmol, ICN/Flow) was added as a sonicated preparation in foetal calf serum (FCS, Techgen, London, U.K., 0.5 μCi/ml) and the cells cultured for a further 3 days maintaining the imino sugars in the medium. The cells were harvested, washed three times with phosphate buffered saline (PBS), extracted in 1 ml chloroform:methanol (2:1 v/v) and separated by 1 dimensional TLC, loading equal counts (1D-TLC, chloroform:methanol:water (65:25:4)). For two dimensional separations the one dimensional separation was performed as described above, the plate dried overnight under vacuum and separated in the second dimension using a solvent of tetrahydrofuran: dimethoxymethane:methanol:water (10:6:4:1). Plates were air dried and exposed to Hyperfilm-MP high performance autoradiography film (Amersham).

[5] = system: α-glucosidase I and II; experiment: Inhibition of purified processing α-glucosidase I and II; type: biochemical; settings: for inhibition of processing α-glucosidases I and II / N-linked oligosaccharide processing: in words
Protocol: Porcine liver α-glucosidase I and rat liver α-glucosidase II were purified to homogeneity and assayed by conventional procedure using a [^14 C]-glucose labelled Glc3 Man9 GlcNAc2 substrate as previously described by Karlsson et al., J. Biol. Chem. 268, 570-576 (1993).
Enzymes were assayed according to procedure described hereinbefore using
The data from FIG. 8 were […]

[6] = system: cholera toxin binding sites on H9 cells; type: cell-based, human
[7] = system: WEHI-3B cell lysosomes; experiment: Transmission electron microscopy of lysosomes of CBE treated WEHI-3B cells; type: cell-based, murine; settings: transmission electron microscopy (FIG. 6)
[8] = system: oligosaccharide biosynthesis in BW5147 cells; experiment: Glycopeptide analysis by Con A-SEPHAROSE chromatography, BW5147 cells; type: cell-based, murine
[9] = system: glycolipid biosynthesis in HL-60 cells; experiment: Inhibition of glycolipid biosynthesis in HL-60 cells, [14C]-palmitic acid labelling, 1D-TLC; type: cell-based, human; settings: for minimal effective concentration: Homo sapiens;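 as to all read-outs here: cells cultured 24 h with or without test compound, total cellular lipids resolved by one-dimensional TLC and detected by autoradiography, inhibition shown as missing Glc-Cer and gangliosides versus untreated cells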

Question: Which cytotoxicity [1] does the source give for CCCCN1C[C@H](O)[C@@H](O)[C@@H](O)[C@H]1CO [NB-DGJ, N-butyl deoxygalactonojirimycin] here?
Answer: non-cytotoxic

Question: And the “prevention of glycolipid storage in in vitro Gaucher's disease model (in words)” value [2]?
Answer: as effective as NB-DNJ

Question: What about the “prevention of glycolipid storage in in vitro Gaucher's disease model (in words)” value ([2]; listed as N-butyl DGJ) of the same compound?
Answer: offset glucoceramide accumulation

Question: What about the minimal effective concentration ([2]; Mus musculus, WEHI3B, 336 h, 50 μM CBE, 14 days (FIG. 5), read-out: dose range preventing CBE induced glycolipid storage) of the same compound?
Answer: 5 to 50 µM

Question: And the IC50 [3]?
Answer: 60.9 µM

Question: What about the “gangliosides, unknown lipid (N*), mono and dihexaside species following treatment” value ([4]; HL-60, 0.5 mM) of the same compound?
Answer: absent

Question: And the “depletion of glycolipid species” value ([4]; HL-60, 500 μM)?
Answer: total depletion of glycolipid species

Question: And the “inhibition of processing α-glucosidases I and II / N-linked oligosaccharide processing” value [5]?
Answer: does not inhibit N-linked oligosaccharide processing

Question: What about the “inhibition of processing α-glucosidases I and II / N-linked oligosaccharide processing” value ([5]; listed as N-butyl DGJ) of the same compound?
Answer: does not inhibit

Question: And the IC50 ([5]; mixture of purified α-glucosidases I and II)?
Answer: 2130 µM

Question: And the cholera toxin binding [6]?
Answer: reduction of the binding of cholera toxin

Question: What about the “reduction in cholera toxin binding” value ([6]; h9 cells, 4320 min) of the same compound?
Answer: approximately 70%

Question: What about the “glycolipid accumulation in lysosomes” value [7] of the same compound?
Answer: prevented the glycolipid accumulation

Question: What about the “Total 3H-mannose recovered” value [8] of the same compound?
Answer: 706873 cpm

Question: What about the Bi-antennary ([8]; percentage of radiolabelled glycopeptides eluted with 10 mM methylglucoside) of the same compound?
Answer: 7.2%

Question: And the “Oligo-mannose & hybrid” value ([8]; percentage of radiolabelled glycopeptides eluted with 500 mM methylmannoside)?
Answer: 52.4%

Question: What about the “Tetra- & Tri-antennary” value ([8]; percentage of radiolabelled glycopeptides non-bound) of the same compound?
Answer: 40.4%

Question: And the “lipid species whose biosynthesis was inhibited” value ([9]; HL-60, 500 μM, 1D-TLC)?
Answer: inhibited the biosynthesis of Glc-Cer, gangliosides and an unknown lipid species

Question: And the “inhibition of glycolipid biosynthesis” value ([9]; HL-60, 500 μM, 1D-TLC (FIG. 1))?
Answer: specifically inhibited glycolipid biosynthesis

Question: And the “effect of N-alkyl chain length on inhibition of glycolipid biosynthesis (loss of detectable Glc-Cer)” value ([9]; HL-60, 0.5 mM, 1D-TLC (FIG. 4), listed as N-butyl DGJ)?
Answer: completely prevented glycolipid biosynthesis; also recorded: completely inhibited glycolipid biosynthesis

Question: What about the minimal effective concentration ([9]; HL-60, relatively low concentration, read-out: concentration inhibitory of glycolipid biosynthesis) of the same compound?
Answer: ~50 µM

Question: And the minimal effective concentration ([9]; HL-60, 1D-TLC (FIG. 3), partial inhibition, read-out: concentrations as low as which partial inhibition occurred)?
Answer: 0.5 to 5 µM
